Test [1] relates to RS (RNA, aptamer) GGGAGACGCACCUGAAUCAACAUACGUGAACGCGACUCUAUCUCCCCAAAUUAGGCGUCAGAUAGCGGCACGGAGUUACACGAUCCGUAACUAGUCGCGUCAC
In words: stopped-flow fluorescence, global fit. The conditions noted are these: K+ 125 mM, Mg2+ 5 mM; 40 mM HEPES, pH 7.4; association rate, two-step model 5; k-1 2.9±0.7, k2 23±1 s^-1.

In test [2] the test system is A (CFX aptamer A) (RNA, aptamer) GGGAGACGCAACAGACUAGGUUGUGACUGCUUAGGCAGUUGUGGACGGCUAAGCCCACCAGAGGUCCGUAACUAGUCGCGUCAC
In words: fluorescence titration (ligand quenching). The conditions noted are these: K+ 125 mM, Mg2+ 10 mM; 40 mM HEPES, pH 7.4, 25 °C; 50 nM CFX; Mg2+ series.

Test [3] has as its system preRS (RNA, aptamer) GGGAGACGCAACUGAAUGAACAUAAGUGAACGCGACUCUAUCUCCCUAAACUAGGAGUCAUAUAGCGGCACGGAGUUACACGAUCCGUAACUAGUCGCGUCAC
As to the kind of experiment: stopped-flow fluorescence, global fit. The conditions noted are these: K+ 125 mM, Mg2+ 5 mM; 40 mM HEPES, pH 7.4; association rate, two-step model 5; k-1 5.4±0.4, k2 12.1±0.7 s^-1.

Test [4] has as its system A (CFX aptamer A) (RNA, aptamer) GGGAGACGCAACAGACUAGGUUGUGACUGCUUAGGCAGUUGUGGACGGCUAAGCCCACCAGAGGUCCGUAACUAGUCGCGUCAC
In words: stopped-flow fluorescence, global fit. The conditions noted are these: K+ 125 mM, Mg2+ 5 mM; 40 mM HEPES, pH 7.4; association rate, reversible two-step model 4; k-1 1.6±0.2, k2 4±0.2, k-2 2.3±0.2 s^-1.

Structures are written as SMILES.

Consider `O=C(O)c1cn(C2CC2)c2cc(N3CCNCC3)c(F)cc2c1=O`, for which the figures for the k1 in test [1], in test [3] and in test [4] were 7.62 ± 0.11 µM/s, 4.31 ± 0.06 µM/s and 10 ± 0.2 µM/s, respectively. Further, in test [2], the KD was ~ 13 nM.

Source of the values: article PMC8053125 (2021).
